Reference: publication PMC7178819, “6,7-Dimethoxy-2-phenethyl-1,2,3,4-tetrahydroisoquinoline amides and corresponding ester isosteres as multidrug resistance reversers” (Journal of Enzyme Inhibition and Medicinal Chemistry, 2020)

Legend:
[1] = test system: MDCK-MDR1 cells; assay: Co-administration assay with doxorubicin (MTT), MDCK-MDR1 cells; assay type: cell-based, canine; conditions: compound 10 µM + 10 µM doxorubicin, MDCK-MDR1
Method: (§1) The co-administration assay with doxorubicin was performed in MDCK-MDR1, HT29, HT29/DX, A549 and A549/DX cells at 48 h. On day 1, 10,000 cells/well were seeded into 96-well plates in a volume of 100 µL of fresh medium. On day 2, the tested drug was added alone to the cells at different concentrations (ranging from 40 nM to 10 µM). On day 3, the medium was removed and the drug at the same concentrations was added alone and in co-administration with 10 µM doxorubicin to the cells. After the established incubation time with the tested drug, MTT (0.5 mg/mL) was added to each well, and after 3 − 4 h incubation at 37 °C, the supernatant was removed. The formazan crystals were solubilised using 100 µL of DMSO/EtOH (1:1), and the absorbance values at 570 and 630 nm were determined on the microplate reader HTX Synergy (Bio-Tek Instruments).

[2] = test system: HT29 cells; assay: Co-administration assay with doxorubicin (MTT), HT29 cells; assay type: cell-based, human; conditions: compound 10 µM + 10 µM doxorubicin
Method: as §1

[3] = test system: HT29/DX cells; assay: Co-administration assay with doxorubicin (MTT), HT29/DX cells; assay type: cell-based, human; conditions: compound 10 µM + 10 µM doxorubicin
Method: as §1

[4] = test system: A549 cells; assay: Co-administration assay with doxorubicin (MTT), A549 cells; assay type: cell-based, human; conditions: compound 10 µM + 10 µM doxorubicin
Method: as §1

[5] = test system: A549/DX cells; assay: Co-administration assay with doxorubicin (MTT), A549/DX cells; assay type: cell-based, human; conditions: compound 10 µM + 10 µM doxorubicin
Method: as §1

[6] = test system: HT29, A549, HT29/DX and A549/DX cells; assay: Preliminary cytotoxicity of compounds alone in cancer cell lines; assay type: cell-based, human; conditions: all the tested concentrations, preliminary assays (data not shown)
Method: as §1
The efficacy of the compounds was next tested in cancer cell lines with various levels of P-gp, as the human adenocarcinoma colon cells (HT29) and non-small cell lung cancer cells (A549) displaying low amount of P-gp, and their resistant counterparts HT29/DX and A549/DX, with a high amount of P-gp[53]. In preliminary assays, we verified that 3 and 8 were not cytotoxic at all the tested concentration (data not shown).

SMILES | cytotoxicity, co-administration with doxorubicin [1] | reduction of cell viability, co-administration with doxorubicin [2] | reduction of cell viability, co-administration with doxorubicin [3] | reduction of cell viability, co-administration with doxorubicin [4] | reduction of cell viability, co-administration with doxorubicin [5] | cytotoxicity, compound alone [6]
COc1ccc(C(=O)Nc2ccc(CCN3CCc4cc(OC)c(OC)cc4C3)cc2)c(OC)c1 [Compound 3, N-(4–(2-(6,7-dimethoxy-3,4-dihydroisoquinolin-2(1H)-yl)ethyl)phenyl)-2,4-dimethoxybenzamide] | 77% | 5% | 35% | 25% | 40% | not cytotoxic
COc1cc2c(cc1OC)CN(CCc1ccc(NC(=O)c3c(OC)c(OC)cc4ccccc34)cc1)CC2 [Compound 8, N-(4–(2-(6,7-dimethoxy-3,4-dihydroisoquinolin-2(1H)-yl)ethyl)phenyl)-2,3-dimethoxy-1-naphthamide] | around 50% | 10% | 29% | 25% | 49% | not cytotoxic
